This note sets out measurements from patent US20070027175A1, “Antineoplastic activities of ellipticine and its derivatives” (priority 2005, published 2007).

Read-outs that look alike come from different tables or passages of the source.

One data set deals with U266 cells. As to the kind of experiment: MTT dose response to anti-myeloma agents, U266. Format: cell-based, human. Conditions: 24 and 48 hours. As to the method:
FIGS. 12A-12B show dose response of myeloma cells to common anti-myeloma agents used in clinics. U266 was one of 4 myeloma cell lines exposed to a panel of anti-myeloma agents in 2-fold titration ([…]). MTT assays were performed to assess cell proliferation inhibition for 24 hours (FIG. 12A) and 48 hours (FIG. 12B). […] Error bars indicate standard deviation.
Myeloma cells were suspended in fresh medium at […] and seeded into 96-well plates in 50-μl aliquots (10,000 cells/well). After treating cells in each well with the appropriate compound (50-μl aliquots of 2× stock solution) and medium control, the methylthiazolyldiphenyl-tetrazolium bromide (MTT) assay kit (Promega, Madison, Wis.) was used to determine cell proliferation, according to manufacturer's instructions. Briefly, dye solution was added to each well (15 μl/well) and incubated for 4 hours at 37° C. and 5% CO2; 100 μl of the solubilization solution/stop mix was then added. The plates were read at 570 nm in a plate reader, and the A570 nm values were corrected by A650 nm. All experiments were conducted in triplicate.
In vitro comparison of EPED3 to ellipticine and four anti-myeloma agents commonly used in clinical treatment regimens was carried out with four myeloma cell lines (JJN3, L363, OCI-MY5, and U266). EPED3, ellipticine, Dox, dexamethasome, VP-16-213, and Velcade were applied in a two-fold dilution series ranging from 0.1 to 6.4 μM. Cell proliferation was assessed using MTT assays 24 and 48 hours after initiating treatments.

In the next data set the test system is myeloma cells. As to the kind of experiment: Velcade sensitivity of myeloma cells without and with stromal co-culture. It is filed as cell-based, human. The source says: The bone marrow microenvironment augments myelomagenesis and can protect myeloma cells from destruction when patients undergo systemic and supportive therapies. In vitro, via direct cell-cell adhesion or soluble factors generated by […] interactions, myeloma cells are reportedly well protected from chemotherapeutic agents (Nefedova et al., 2001).

The subject of data set [1] is 12 myeloma cell lines (Ark, BW288, CAG, Delta47, DF15, JJN3, kms11, L363, opm2, RPMI8226, U266 and XG1). Nature of the data set: Comparative study with existing anti-myeloma drugs (CellTiter-Glo). It is filed as cell-based, human. Further details: time to inhibition of cell proliferation: dose or concentration left out as unconfirmed. From the text:
The results obtained from these controls are pooled together in the figure (●). The dose of each compound was set […].
Comparative study of NSC 338258 with existing anti-myeloma drugs Myeloma cell lines were exposed to NSC 338258 and existing anti myeloma drugs, Adriamycin® (Doxorubicin Hydrochloride) and Etoposide (VP-16-213) in ninety six well culture plates. The concentration of each compound was set […]. […] The cell growth was near zero in the following days (day 4 onwards; FIG. 6). It was also observed that 12 myeloma cell lines (Ark, BW288, CAG, Delta47, DF15, JJN3, kms11, L363, opm2, RPMI8226, U266 and XG1) responded to the same dosage (0.2 μM) of NSC 338258, VP-16-213 and Adriamycin in 5 days.

For data set [2], the system named is Fetal bone mesenchymal cells. Nature of the data set: Selectivity: viability of normal fetal bone mesenchymal cells (CellTiter-Glo). It is filed as cell-based, human. Conditions: 0.01-1.0 mM; five days. As to the method: The cell viability was tested every day for a period of five days. It was observed that these cells were not killed by the concentrations that were otherwise toxic to the myeloma cells.
Fetal bone mesenchymal cells were contacted with NSC 338258 in ninety six well culture plates. The concentrations of NSC 338258 were set at 0.01, 0.03. 0.1, 0.3 and 1.0 mM (FIG. 7).
In general terms: ATP-based viability assays read luminescence as a measure of living cells.

The test system of the next data set is U266 myeloma cell line. Also noted: cell viability (CellTiter-Glo luminescent assay): dose or concentration left out as unconfirmed. The settings on record: for cell viability (CellTiter-Glo luminescent assay): U266. As to the method: The dosage of each derivative was set at 2, 0.2 and 0.02 mM. A cell culture medium control and 0.5% DMSO control was maintained in each experiment. The cell viability was tested each day over a period of five days using the CellTiter-Glo luminescent cell viability assay kit from Promega Co.
U266 cell line was one of 12 myeloma cell lines used in screening of anti-myeloma agents. In FIG. 10A, cells were treated with 14 ellipticine derivatives (0.5 mM) obtained from the DTP; control cells were untreated. Ellipticine derivatives are coded with NSC identifiers. For 5 days, cell viability was measured every 24 hours using CellTiter-Glo Luminescent Assay. […] In FIG. 10B, U266 cells, along with six other myeloma cell lines, were co-cultured in direct contact with human fetal bone mesenchymal cells and treated with EPED3 (0.5 mM and 2 mM) or Velcade (0.5 mM); control cells were untreated. Cell proliferation was assessed by MTT assay every 24 hours for 5 days. […] Error bars indicate standard deviation.
Cell Titer-Glo luminescent cell viability assay kit from Promega Co (Madison, Wis.) was used to determine cell growth inhibition by the various compounds tested. The kit determines cell viability by quantifying the amount of ATP present in the cell culture medium. Presence of ATP signals the presence of metabolically active cells (3). The intensity of luminescence was measured by a computerized luminometer (Promega, Co. Madison, Wis.). Each well was read five times within 30 minutes of adding Cell Titer-Glo reagent mixture.
Cells were contacted with the antineoplastic agents in ninety six well culture plates. The concentration of each neoplastic agent was maintained a constant. A cell culture medium control and 0.5% DMSO control were maintained in each set of experiments. The cell viability was tested every day using the CellTiter-Glo luminescent cell viability kit from Promega Co. (Madison, Wis.) for a period of five days.

For the molecule `CC(C)C[C@H](NC(=O)[C@H](Cc1ccccc1)NC(=O)c1cnccn1)B(O)O` [Velcade, bortezomib, reference compound], in the data set on U266 cells (without co-culture, MTT), the “concentration of efficient killing of U266 cells” value is “less than 0.1 μM”. In the data set with myeloma cells (absence of stromal cells), this molecule came in with an effective low dose of 4 nM. Also, in the data set with myeloma cells (co-culture versus absence of stromal cells, data not shown), the reduction in sensitivity result is “more than 100 fold”. Also, the “tolerance of myeloma cells to Velcade” value in the data set on myeloma cells (co-culture with human fetal bone mesenchymal cells, data not shown) is recorded as “up to 500 nM”.

In the case of `Cc1c2ccncc2c(C)c2c1[nH]c1ccc(OCCN(C)C)cc12` [NSC 338258, ellipticine, 9-dimethyl amino-ethoxy-], in data set [1], the “time to inhibition of cell proliferation” value is not above 24 h. The “response of 12 myeloma cell lines” value in data set [1] (0.2 μM, in 5 days) is reported as “responded”. Besides, the “concentration with better efficacy on reduction of cell metabolic activity” value in the data set with U266 cells (U266) is not below 0.4 µM. Besides, the “concentration at which cell proliferation stopped” value with U266 cells (U266, MTT) was found to be 0.2 µM. The “killing of fetal bone derived normal mesenchymal cells” value in data set [2] is reported as “not killed”. For the same molecule, the “cytotoxic activity on U266 cells” value with U266 myeloma cell line was “drastic cytotoxic activity”. The “cell viability (CellTiter-Glo luminescent assay)” value (from here on “cell viability”) with U266 myeloma cell line (0.02, Day 1) is given as 26,346; in the data set with U266 myeloma cell line (0.02, Day 2) it was 37,946; in the data set with U266 myeloma cell line (0.02, Day 3), 43,097; in the data set on U266 myeloma cell line (0.02, Day 4) it was 74,106; in the data set with U266 myeloma cell line (0.02, Day 5), 86,287; with U266 myeloma cell line (0.2, Day 1), 5,906. Also, the “cell viability” value with U266 myeloma cell line (0.2, Day 2) was 1,414; in the data set on U266 myeloma cell line (0.2, Day 3), 515; in the data set with U266 myeloma cell line (0.2, Day 4), 291; with U266 myeloma cell line (0.2, Day 5), 101; in the data set on U266 myeloma cell line (2, Day 1), 2,559; in the data set with U266 myeloma cell line (2, Day 2), 691. For the same molecule, the “cell viability” value in the data set on U266 myeloma cell line (2, Day 3) was 172; in the data set with U266 myeloma cell line (2, Day 4), 183; in the data set on U266 myeloma cell line (2, Day 5) it was 104.
